Laboratory results as given in the supplement of paper PMC10307832.

What was measured:
Experiment in all cases: relative viability (nuclei count vs DMSO), 5 days (fraction); higher = more cells survive
Avagacestat + Luminespib = compound: NC(=O)[C@@H](CCC(F)(F)F)N(Cc1ccc(-c2ncon2)cc1F)S(=O)(=O)c1ccc(Cl)cc1 [Avagacestat] + CCNC(=O)c1noc(-c2cc(C(C)C)c(O)cc2O)c1-c1ccc(CN2CCOCC2)cc1 [Luminespib] (partner 0.01 µM)
Summary of the method: (§1)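 Relative viability was taken as the ratio of nuclei in treated wells to nuclei in vehicle wells. Lung cancer cell lines in 1536-well plates received compounds by pin tool one day after seeding, either one drug alone or a fixed anchor-drug dose plus five library-drug doses (not always all listed) in √10 steps. Nuclei were counted on 4× images after 5 days of treatment, and values are medians of duplicate plates.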

Avagacestat + Bortezomib = compound: NC(=O)[C@@H](CCC(F)(F)F)N(Cc1ccc(-c2ncon2)cc1F)S(=O)(=O)c1ccc(Cl)cc1 [Avagacestat] + CC(C)C[C@H](NC(=O)[C@H](Cc1ccccc1)NC(=O)c1cnccn1)B(O)O [Bortezomib] (partner 0.002 µM)
Summary of the method: as §1

Avagacestat + Dasatinib = compound: NC(=O)[C@@H](CCC(F)(F)F)N(Cc1ccc(-c2ncon2)cc1F)S(=O)(=O)c1ccc(Cl)cc1 [Avagacestat] + Cc1nc(Nc2ncc(C(=O)Nc3c(C)cccc3Cl)s2)cc(N2CCN(CCO)CC2)n1 [Dasatinib] (partner 0.075 µM)
Summary of the method: as §1

[1] = compound: NC(=O)[C@@H](CCC(F)(F)F)N(Cc1ccc(-c2ncon2)cc1F)S(=O)(=O)c1ccc(Cl)cc1 [Avagacestat] + CC(=O)c1c(C)c2cnc(Nc3ccc(N4CCNCC4)cn3)nc2n(C2CCCC2)c1=O [Palbociclib] (partner 0.5 µM)
Summary of the method: as §1

Cell Line | relative viability (Avagacestat + Luminespib; first compound 0.08 µM) | relative viability (Avagacestat + Luminespib; first compound 0.253 µM) | relative viability (Avagacestat + Luminespib; first compound 0.8 µM) | relative viability (Avagacestat + Luminespib; first compound 2.53 µM) | relative viability (Avagacestat + Luminespib; first compound 8 µM) | relative viability (Avagacestat + Bortezomib; first compound 0.08 µM) | relative viability (Avagacestat + Bortezomib; first compound 0.253 µM) | relative viability (Avagacestat + Bortezomib; first compound 0.8 µM) | relative viability (Avagacestat + Bortezomib; first compound 2.53 µM) | relative viability (Avagacestat + Bortezomib; first compound 8 µM) | relative viability (Avagacestat + Dasatinib; first compound 0.08 µM) | relative viability (Avagacestat + Dasatinib; first compound 0.253 µM) | relative viability (Avagacestat + Dasatinib; first compound 0.8 µM) | relative viability (Avagacestat + Dasatinib; first compound 2.53 µM) | relative viability (Avagacestat + Dasatinib; first compound 8 µM) | relative viability ([1]; first compound 0.08 µM) | relative viability ([1]; first compound 0.253 µM) | relative viability ([1]; first compound 0.8 µM) | relative viability ([1]; first compound 2.53 µM) | relative viability ([1]; first compound 8 µM)
NCI-H1975 | 0.216 | 0.164 | 0.207 | 0.182 | 0.154 | 0.382 | 0.343 | 0.415 | 0.327 | 0.318 | 0.395 | 0.478 | 0.386 | 0.402 | 0.384 | 0.688 | 0.633 | 0.887 | 0.599 | 0.536
NCI-H322M | 0.862 | 0.875 | 0.927 | 0.695 | 0.638 | 1.27 | 1.23 | 1.4 | 1.05 | 1.17 | 0.281 | 0.242 | 0.247 | 0.251 | 0.257 | 0.456 | 0.442 | 0.455 | 0.419 | 0.531
NCI-H1666 | 1.29 | 1.21 | 1.12 | 1.07 | 1.13 | 0.942 | 0.78 | 0.861 | 0.83 | 0.842 | 0.819 | 0.739 | 0.876 | 0.783 | 0.653 | 0.69 | 0.699 | 0.642 | 0.714 | 0.644
NCI-H1355 | 0.769 | 0.717 | 0.797 | 0.635 | 0.641 | 1.37 | 1.38 | 1.33 | 1.14 | 1.1 | 0.688 | 0.754 | 0.687 | 0.557 | 0.62 | 0.441 | 0.418 | 0.353 | 0.351 | 0.333
PC-3 [JPC-3] | 0.677 | 0.81 | 0.785 | 0.671 | 0.628 | 0.789 | 1.01 | 0.924 | 0.902 | 0.914 | 1.17 | 1.14 | 1.16 | 0.888 | 0.843 | 0.544 | 0.574 | 0.66 | 0.562 | 0.6
NCI-H650 | 0.91 | 0.965 | 0.92 | 0.831 | 0.818 | 1.08 | 0.948 | 1.16 | 1.03 | 0.735 | 0.499 | 0.398 | 0.481 | 0.456 | 0.451 | 0.313 | 0.361 | 0.314 | 0.275 | 0.308
UMC-11 | 1.18 | 1.35 | 1.1 | 1.16 | 1.14 | 0.915 | 0.563 | 0.722 | 0.749 | 0.414 | 0.633 | 0.598 | 0.647 | 0.541 | 0.473 | 0.325 | 0.312 | 0.323 | 0.315 | 0.34
NCI-H520 | 0.223 | 0.241 | 0.239 | 0.218 | 0.23 | 0.728 | 0.555 | 0.679 | 0.48 | 0.334 | 0.267 | 0.16 | 0.158 | 0.168 | 0.162 | 0.21 | 0.23 | 0.198 | 0.194 | 0.201
